Values quoted from earlier work, collected in US6602521B1, “Multiplex drug delivery system suitable for oral administration” (Impax Pharmaceuticals, Inc., priority 1998, dated 2003).

In the case of `O=[N+]([O-])O[C@@H]1CO[C@H]2[C@@H]1OC[C@@H]2O` [Isosorbide mononitrate, 1,4:3,6-dihydro-D-glucitrol 5-nitrate], the “absorption from the gastrointestinal tract” value (gastrointestinal tract) is given as “rapidly and completely absorbed”, the rate of clearance (healthy young adults vs patients with various degrees of renal, hepatic, or cardiac dysfunction) is given as “the same” and the “first pass metabolism in the liver” value (in humans) is given as “not subject to first pass metabolism”. The overall elimination half-life (in vivo) was “about 6 hours”.
